In BindingDB's records for doi:10.1016/j.bmc.2010.04.050 (Purdue University, 2010) one finds IC50 data, which are given here for 1 compound.

This experiment addresses Low molecular weight phosphotyrosine protein phosphatase ACP1 (Homo sapiens) (UniProt P24666). Description: Inhibition of human cytoplasmic protein tyrosine phosphatase A assessed as change in enzyme activity at pH 7.

Sequence of Low molecular weight phosphotyrosine protein phosphatase ACP1 (Homo sapiens) (P24666 whole entry, looked up): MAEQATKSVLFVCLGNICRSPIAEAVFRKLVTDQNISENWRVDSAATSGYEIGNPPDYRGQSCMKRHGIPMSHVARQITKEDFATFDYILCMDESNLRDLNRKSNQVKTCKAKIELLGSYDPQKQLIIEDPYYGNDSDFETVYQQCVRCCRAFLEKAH

As for `O=NC(Cc1ccnc2ccccc12)C(=O)O` (stereo unspecified) [2-(hydroxyimino)-3-(quinolin-4-yl)propanoic acid], the IC50 turned out to be 72 µM.

The IC50 is the concentration that inhibits the measured activity by half.
